Here are results for 26 compounds from article PMC5784158, “New 2-Aryl-9-methyl-β-carbolinium salts as Potential Acetylcholinesterase Inhibitor agents: Synthesis, Bioactivity and Structure–Activity Relationship” (Scientific Reports, 2018).

The structures appear in SMILES notation.

Experiment [1] addresses AChE (Musca domestica, UniProt Q7YWJ9). In words: biochemical. The settings on record: for IC50: read-out: IC50 ± S.D AChE; for Inhibition rate (%): test concentration of the compound 10 μM. The format is biochemical, fly. How it is done: AChE (E.C. 3.1.1.7) (BR, 200 u/mg) from fly’s head and BuChE (E.C. 3.1.1.8) (BR, 20 u/mg) from horse serum were purchased from Shanghai Yuanye biological technology Co. Ltd (Shanghai, China).
(§1) The inhibitory activities of the compounds against AChE were evaluated according to Ellman’s coupled enzyme assay[47] with the following modifications. 90 μL potassium phosphate buffer (PBS, 0.1 M, pH 7.4), 10 μL the solution of 2 units/mL AChE in 0.1 M PBS (pH 7.4) and 10 μL the solution of 200 μM test compounds in the mixed solution of methanol-PBS (pH 7.4) (1:9, V/V) were added to each well of a 96-well plate. The methanol-PBS solution was used as a blank control. After incubation at room temperature for 10 min, 60 μL the solution of 10 mM DTNB in PBS was added into each the well. The plate was placed on crushed ices and cooled for 20 min. To each the well was added 30 μL the solution of 7.5 mM ATCh in PBS (pH 7.4). […] Each test was performed in triplicate. Inhibition rates of the enzyme were calculated relative to a control sample. The inhibitory activities against BuChE were measured as described above for AChE, using 0.7 unit/mL BuChE and 4 mM BuTCh instead of AChE and ATCh as the enzyme and substrate, respectively.
(§2) The probit value of the average inhibition rate for each test concentration and the corresponding lg[concentration] were used to establish enzyme inhibition regression equation by the linear least-square fitting method. IC50 values were calculated from the equations.

Experiment [2] addresses T1, BuChE (Equus caballus, UniProt P81908).
T1 construct: BuChE (E.C. 3.1.1.8) (BR, 20 u/mg) from horse serum; purchased Shanghai Yuanye biological technology Co. Ltd (Shanghai, China); host or cells: horse serum (tissue-derived)
In words: BuChE inhibition, Ellman's method. Format: biochemical, horse. The settings on record: read-out: IC50 ± S.D BuChE.
From the text: There is increasing recognition that BuChE may play an important role in cholinergic transmission[15],[16]. While the level of AChE decreases dramatically in the advanced stage of AD, BuChE increases in brain regions involved in cognitive functions[17],[18]. At this point, BuChE is able to compensate for AChE loss by hydrolyzing ACh. These observations lead one to believe that inhibition of both AChE and BuChE may contribute to improvement of current symptomatic treatments of AD. Therefore, the compounds in Table 2 were also evaluated for BuChE inhibition activity by means of Ellman’s method. […] AChE (E.C. 3.1.1.7) (BR, 200 u/mg) from fly’s head and BuChE (E.C. 3.1.1.8) (BR, 20 u/mg) from horse serum were purchased from Shanghai Yuanye biological technology Co. Ltd (Shanghai, China).
as §1, §2
A general note: Ellman's reagent forms a yellow product with free thiols.

What is called IC50 is the midpoint of a concentration-inhibition curve.

Sequence of AChE (Q7YWJ9 81-659): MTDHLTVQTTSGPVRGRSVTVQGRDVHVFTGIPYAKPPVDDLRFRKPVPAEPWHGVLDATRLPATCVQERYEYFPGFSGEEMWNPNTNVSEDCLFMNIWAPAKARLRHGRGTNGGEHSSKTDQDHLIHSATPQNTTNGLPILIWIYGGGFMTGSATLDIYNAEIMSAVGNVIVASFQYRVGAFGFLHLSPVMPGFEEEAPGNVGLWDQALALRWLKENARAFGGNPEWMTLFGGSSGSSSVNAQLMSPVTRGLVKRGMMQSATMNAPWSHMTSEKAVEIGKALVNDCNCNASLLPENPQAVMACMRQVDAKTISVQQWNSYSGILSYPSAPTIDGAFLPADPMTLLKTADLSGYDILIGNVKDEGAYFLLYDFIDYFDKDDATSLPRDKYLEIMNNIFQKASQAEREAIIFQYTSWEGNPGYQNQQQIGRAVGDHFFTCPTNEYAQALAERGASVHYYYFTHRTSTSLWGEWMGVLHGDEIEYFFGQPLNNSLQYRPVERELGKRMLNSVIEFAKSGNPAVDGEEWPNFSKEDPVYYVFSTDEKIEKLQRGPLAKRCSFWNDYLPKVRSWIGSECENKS
T1 sequence (P81908 whole entry): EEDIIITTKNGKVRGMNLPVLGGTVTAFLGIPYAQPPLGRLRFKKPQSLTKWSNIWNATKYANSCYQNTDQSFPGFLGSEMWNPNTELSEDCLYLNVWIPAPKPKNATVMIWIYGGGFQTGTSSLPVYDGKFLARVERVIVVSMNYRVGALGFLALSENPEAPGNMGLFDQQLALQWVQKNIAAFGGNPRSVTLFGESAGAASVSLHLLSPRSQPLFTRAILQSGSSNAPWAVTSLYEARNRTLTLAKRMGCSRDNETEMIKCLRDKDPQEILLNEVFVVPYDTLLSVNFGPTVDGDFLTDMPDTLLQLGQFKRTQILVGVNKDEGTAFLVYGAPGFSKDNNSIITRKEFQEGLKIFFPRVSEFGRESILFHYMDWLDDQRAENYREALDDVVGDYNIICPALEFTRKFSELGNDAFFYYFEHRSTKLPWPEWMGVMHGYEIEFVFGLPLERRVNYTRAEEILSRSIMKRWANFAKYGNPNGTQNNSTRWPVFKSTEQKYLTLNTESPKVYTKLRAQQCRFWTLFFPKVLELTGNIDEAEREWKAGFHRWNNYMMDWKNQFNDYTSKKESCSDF

As to `Cc1ccc2c(c1)c1c(n2C)C=[N+](c2ccccc2)CC1.[Br-]` [Compound A35], in experiment [1], the “SI: selectivity index, ratio IC50 (BuChE)/IC50 (AChE)” value (shortened to “SI: selectivity index, ratio IC50”) came to 3.98; the 50% inhibitory concentration (IC50) is 2.66 ± 0.37 µM; the “Inhibition rate (%)” value is listed as 70.3 ± 2.2 bc %. The IC50 in experiment [2] was determined as 10.6 ± 0.58 µM.
The corresponding values for `COc1cccc(-[n+]2ccc3c4ccccc4n(C)c3c2)c1.[Br-]` [Compound B18, 9-Methyl-2-(3-methoxylphenyl)-β-carboline bromide] are 6.42, 9.69 ± 0.8 µM, 53.5 ± 0.4 op % and 62.2 ± 3.62 µM.
The corresponding values for `CC(C)n1c2c(c3ccccc31)CC[N+](c1ccccc1)=C2.[Br-]` [Compound A40] are 4.37, 3.73 ± 0.34 µM, 68.9 ± 5.1 bc % and 16.3 ± 0.56 µM.
The corresponding values for `Cn1c2ccccc2c2cc[n+](-c3ccc(C(F)(F)F)cc3)cc21.[Br-]` [Compound B27, 9-Methyl-2-(4-trifluoromethylphenyl)-β-carboline bromide] are 111.3, 0.7 ± 0.11 µM, 91.4 ± 0.3 bcde % and 77.9 ± 4.97 µM.
Take `C1=[N+](c2ccccc2)CCc2c1[nH]c1ccccc21.[Br-]` [Compound A46]: the IC50 is 18.2 ± 1.97 µM in experiment [1] and 3.9 ± 0.53 µM in experiment [2]. Besides, the “Inhibition rate (%)” value in experiment [1] came to 41.3 ± 1.4 ij %.
Turning to `Cn1c2c(c3ccc(F)cc31)CC[N+](c1ccccc1)=C2.[Br-]` [Compound A36], in experiment [1], the “SI: selectivity index, ratio IC50” value turned out to be 3.00; the IC50 was 4.74 ± 0.9 µM; the “Inhibition rate (%)” value is 59.3 ± 2.1 de %. In addition, the IC50 in experiment [2] came out at 14.2 ± 0.44 µM.
For `Cn1c2ccccc2c2cc[n+](-c3ccc(Br)cc3F)cc21.[Br-]` [Compound B32, 9-Methyl-2-(2-fluoro-4-bromophenyl)-β-carboline bromide], in experiment [1], the “SI: selectivity index, ratio IC50” value is listed as 385.0 and the “Inhibition rate (%)” value stood at 92.8 ± 1.0 abc %. The IC50 in experiment [2] came out at 116 ± 18.2 µM.
Consider `CCCCn1c2c(c3ccccc31)CC[N+](c1ccccc1)=C2.[Br-]` [Compound A42], for which, in experiment [1], the “SI: selectivity index, ratio IC50” value was 1.02; the IC50 came out at 9.79 ± 3.55 µM; the “Inhibition rate (%)” value was 53.9 ± 1.5 ef %. In experiment [2], the IC50 was 10 ± 0.68 µM.
As for `Cn1c2c(c3ccccc31)CC[N+](c1ccc(O)cc1)=C2.[Br-]` [Compound A16], in experiment [1], the “SI: selectivity index, ratio IC50” value was found to be 9.96; the IC50 is 2.81 ± 0.22 µM; the “Inhibition rate (%)” value is 64.3 ± 0.3 cd %. Besides, in experiment [2], the IC50 came out at 28 ± 2.88 µM.
The like results for `Cn1c2ccccc2c2cc[n+](-c3ccc(Cl)cc3Cl)cc21.[Br-]` [Compound B30, 9-Methyl-2-(2,4-dichlorophenyl)-β-carboline bromide] were, in that order, 241.1, 0.55 ± 0.07 µM, 90.6 ± 1.0 def % and 133 ± 26.3 µM.
The like results for `Cn1c2ccccc2c2cc[n+](-c3cccc(I)c3)cc21.[Br-]` [Compound B12, 9-Methyl-2-(3-iodohenyl)-β-carboline bromide] were, in that order, 1.90, 11.1 ± 1.34 µM, 56.4 ± 5.9 no % and 21.1 ± 0.46 µM.
For the compound `Cn1c2ccccc2c2cc[n+](-c3ccccc3C#N)cc21.[Br-]` [Compound B23, 9-Methyl-2-(2-cyanophenyl)-β-carboline bromide], in experiment [1], the “SI: selectivity index, ratio IC50” value is recorded as 44.4; the IC50 was found to be 4.41 ± 0.29 µM; the “Inhibition rate (%)” value is reported as 68.7 ± 0.7 lm %. In addition, the IC50 in experiment [2] was 196 ± 13.4 µM.
The corresponding values for `Cn1c2ccccc2c2cc[n+](-c3cccc(Cl)c3)cc21.[Br-]` [Compound B6, 9-Methyl-2-(3-chlorophenyl)-β-carboline bromide] are 3.40, 9.65 ± 0.78 µM, 56.4 ± 2.5 no % and 33.1 ± 1.07 µM.
The corresponding values for `Cn1c2ccccc2c2cc[n+](-c3ccccc3F)cc21.[Br-]` [Compound B2, 9-Methyl-2-(2-fluorophenyl)-β-carboline bromide] are 3.49, 6.65 ± 1.07 µM, 59.8 ± 3.2 n % and 23 ± 0.53 µM.
The corresponding values for `CCn1c2c(c3ccccc31)CC[N+](c1ccccc1)=C2.[Br-]` [Compound A38] are 2.82, 3.69 ± 0.4 µM, 76.6 ± 3.7 a % and 10.4 ± 0.4 µM.
Take `Cn1c2ccccc2c2cc[n+](-c3ccc(Cl)cc3)cc21.[Br-]` [Compound B7, 9-Methyl-2-(4-chlorophenyl)-β-carboline bromide]: in experiment [1], the “SI: selectivity index, ratio IC50” value is 107.1; the IC50 came out at 0.56 ± 0.07 µM; the “Inhibition rate (%)” value was 91.2 ± 1.5 cde %. In addition, in experiment [2], the IC50 was 60 ± 1.52 µM.
With `Cn1c2c(c3ccccc31)CC[N+](c1ccc(I)cc1)=C2.[Br-]` [Compound A13], in experiment [1], the “SI: selectivity index, ratio IC50” value was 9.80; the IC50 turned out to be 5.5 ± 0.37 µM; the “Inhibition rate (%)” value was found to be 54.2 ± 3.2 ef %. The IC50 in experiment [2] is 53.8 ± 2.51 µM.
The like results for `COc1ccc(-[n+]2ccc3c4ccccc4n(C)c3c2)cc1.[Br-]` [Compound B19, 9-Methyl-2-(4-methoxylphenyl)-β-carboline bromide] were, in that order, 72.3, 0.47 ± 0.04 µM, 90.7 ± 0.8 def % and 34 ± 2 µM.
The like results for `Cn1c2ccccc2c2cc[n+](-c3ccc(F)cc3)cc21.[Br-]` [Compound B4, 9-Methyl-2-(4-fluorophenyl)-β-carboline bromide] were, in that order, 35.3, 1.46 ± 0.12 µM, 84.3 ± 1.5 hi % and 51.6 ± 2.43 µM.
On to `Cn1c2ccccc2c2cc[n+](-c3cccc(F)c3)cc21.[Br-]` [Compound B3, 9-Methyl-2-(3-fluorophenyl)-β-carboline bromide], for which, in experiment [1], the “SI: selectivity index, ratio IC50” value was found to be 15.3; the IC50 was found to be 4.73 ± 0.33 µM; the “Inhibition rate (%)” value turned out to be 70.5 ± 2.2 l %. Moreover, the IC50 in experiment [2] is 72.4 ± 4.25 µM.
Take `CCCn1c2c(c3ccccc31)CC[N+](c1ccccc1)=C2.[Br-]` [Compound A39]: in experiment [1], the “SI: selectivity index, ratio IC50” value turned out to be 2.27; the IC50 came to 5.72 ± 0.66 µM; the “Inhibition rate (%)” value was determined as 67.1 ± 2.4 c %. Further, the IC50 in experiment [2] was found to be 13 ± 0.62 µM.
The corresponding values for `Cc1ccccc1-[n+]1ccc2c3ccccc3n(C)c2c1.[Br-]` [Compound B20, 9-Methyl-2-(2-methylphenyl)-β-carboline bromide] are 15.9, 9.71 ± 0.55 µM, 59.6 ± 3.2 n % and 154 ± 9.1 µM.
The like results for `C=CCn1c2c(c3ccccc31)CC[N+](c1ccccc1)=C2.[Br-]` [Compound A41] were, in that order, 1.75, 3.91 ± 0.36 µM, 74.4 ± 1.1 ab % and 6.83 ± 0.2 µM.
Turning to `Cn1c2c(c3ccccc31)CC[N+](c1ccc(F)cc1)=C2.[Br-]` [Compound A4], in experiment [1], the “SI: selectivity index, ratio IC50” value worked out at 4.22; the IC50 is 14.1 ± 1.41 µM; the “Inhibition rate (%)” value turned out to be 49.3 ± 2.2 fgh %. Also, in experiment [2], the 50% inhibitory concentration (IC50) stood at 59.5 ± 2.72 µM.
The like results for `Cn1c2c(c3ccccc31)CC[N+](c1ccccc1)=C2.[Br-]` [Compound A1] were, in that order, 0.54, 18.6 ± 2.93 µM, 40.9 ± 2.1 ij % and 10.1 ± 1.66 µM.
Turning to `Cn1c2c(c3ccc(Cl)cc31)CC[N+](c1ccccc1)=C2.[Br-]` [Compound A37], in experiment [1], the “SI: selectivity index, ratio IC50” value is given as 2.91; the IC50 turned out to be 4.02 ± 0.95 µM; the “Inhibition rate (%)” value was 66.6 ± 4.7 c %. Also, in experiment [2], the IC50 was found to be 11.7 ± 0.5 µM.
